Drawing on article PMC12040169 (PLOS Biology, 2025), this text covers viability for 75 compounds.

Each structure is given as a SMILES string.

This series in a line: in vitro. The following applies: human, hela cells, % viability.

For the compound `O=[N+]([O-])c1cccc(-c2csc(N/N=C\c3cccc(O)c3)n2)c1` [CBK263418], the viability (as a rule, a read-out of living cells in per cent, often relative to untreated cells) at 28.5 h, 10 µM worked out at 95.5%.

Turning to `O=C(Nc1ccc2oc(-c3cccnc3)nc2c1)c1cccc(OCc2ccccc2)c1` [CBK263420], the viability at 28.5 h, 10 µM was determined as 94.4%. `NS(=O)(=O)c1ccc(-c2ccc(/C=C3\C(=O)NC(=O)N(c4ccc(Br)cc4)C3=O)o2)cc1` [CBK263423]: where the note is “bulk resorufin, single well”, the viability at 28.5 h, 10 µM was determined as 93.2%. Turning to `CCc1ccc2oc(-c3ccc(NC(=O)COc4ccc(Cl)cc4Cl)cc3O)nc2c1` [CBK263424], the viability at 28.5 h, 10 µM turned out to be 104%. On the same count and under the same terms, next, `O=C(Nc1ccccc1)C(N1CCCCC1)N1CCCCC1` [CBK263425]: 105%.

`Cc1cc(C=C2C(=O)NC(=O)NC2=O)c(C)n1C1CCCCC1` [CBK263426]: the viability at 28.5 h, 10 µM (bulk resorufin, single well) was 93.6%. Take `O=C(Nc1ccc2nc(SCc3ccc([N+](=O)[O-])cc3)sc2c1)c1ccccc1` [CBK263427]: the viability at 28.5 h, 10 µM came out at 98.4%. With `COc1ccc(CC(=O)Nc2ccc(S(N)(=O)=O)cc2)cc1OC` [CBK263429], the viability at 28.5 h, 10 µM was found to be 92%. Same read-out and setting: with `O=C(NCc1ccccc1)c1ccc(CN2CCC(Cc3ccccc3)CC2)cc1` [CBK263432] the figure was 87.5%. As for `CCCCOc1cccc(C(=O)Nc2ccc(-c3nc4ccccc4o3)c(O)c2)c1` [CBK263435], the viability at 28.5 h, 10 µM is 101%. Same read-out and setting: next, `O=C(Nc1ccc2oc(-c3cccnc3)nc2c1)c1ccc(Br)o1` [CBK263436]: 112%; `Cc1cc2nc(-c3cc(NC(=O)/C=C/c4cccc([N+](=O)[O-])c4)ccc3O)oc2cc1C` [CBK263438]: 94.1%; `CCOc1cc(OCC)cc(C(=O)Nc2ccc(-c3nc4ncccc4o3)cc2)c1` [CBK263440]: 96.8%.

Turning to `O=C(NCCCN1CCOCC1)c1cc2cc([N+](=O)[O-])ccc2oc1=O` [CBK263441], the viability at 28.5 h, 10 µM was 90.9%. In the case of `O=C(COc1ccc([N+](=O)[O-])cc1)Nc1ccc2oc(-c3ccc(Br)cc3)nc2c1` [CBK263444], the viability at 28.5 h, 10 µM was 106%. On the same count and under the same terms, with `COc1ccc2[nH]c(SCC(=O)Nc3ccc(Br)cc3)nc2c1` [CBK263447] the figure was 91%.

Take `N=c1n(CCN2CCCC2)c2ccccc2n1CC(O)c1ccc(Cl)c(Cl)c1` (stereo not drawn) [CBK263448C]: the viability at 28.5 h, 10 µM is 83.6%. On the same count and under the same terms, with `CC1CCCC(N2CCN(Cc3ccccn3)CC2)C1` (stereo not drawn) [CBK263450] the figure was 93%. The same measure, in the same setting: next, `O=C(Nc1ccc(-c2nnc(-c3ccco3)o2)cc1)C(c1ccccc1)c1ccccc1` [CBK263452]: 106%.

`Cc1no[n+]([O-])c1COc1cccc(/C=C2\N=C(c3ccccc3)OC2=O)c1` [CBK263454]: the viability at 28.5 h, 10 µM came to 96.3%. Still for that read-out and setting: next, `CCN(CC)CCn1c(=N)n(CC(=O)c2ccc(Cl)c(Cl)c2)c2ccccc21` [CBK263455B]: 91.5%; `CC(C)C(=O)Nc1ccc(Oc2ccc(C(=O)O)c(C(=O)O)c2)cc1` [CBK263463]: 86.4%; `COc1ccc(C(=O)Nc2ccccc2)cc1NC(=O)c1cc(C(F)(F)F)cc(C(F)(F)F)c1` [CBK263465]: 90%. Same read-out and setting: next, `COc1nnc(-c2ccc(C)cc2)c2ccccc12` [CBK263466]: 92%. Turning to `COc1cc(C=C2C(=O)NC(=S)NC2=O)ccc1OCc1c(C)no[n+]1[O-]` [CBK263467], the viability at 28.5 h, 10 µM (bulk resorufin, single well) was found to be 95.8%. Regarding `CC(C)(C)c1cc(N2C(=O)C(O)=C(C(=O)c3ccc(Cl)cc3)C2c2cccc([N+](=O)[O-])c2)no1` (stereo not drawn) [CBK263470], the viability at 28.5 h, 10 µM is 92.8%. Turning to `O=C(CN1C(=O)c2ccc([N+](=O)[O-])cc2C1=O)Nc1cc(Cl)ccc1C(=O)O` [CBK263472], the viability at 28.5 h, 10 µM is 97.1%.

Take `CC1CCC(N2CCN(Cc3ccccn3)CC2)CC1` (stereo not drawn) [CBK263473]: the viability at 28.5 h, 10 µM turned out to be 90.6%. On the same count and under the same terms, with `COc1ccc(OC)c(C(O)c2nc3ccccc3n2C(C)C)c1` (stereo not drawn) [CBK263474] the figure was 92.7%. For `COc1cc(C=C2C(=O)NC(=S)NC2=O)cc(Br)c1OCc1c(C)no[n+]1[O-]` [CBK263475], the viability at 28.5 h, 10 µM (bulk resorufin, single well) worked out at 98.9%. On to `COc1cc(CN2CCN(C(=O)c3cccc4ccccc34)CC2)cc(OC)c1O` [CBK263477], for which the viability at 28.5 h, 10 µM is 103%. On to `Cc1cc(-c2ccccc2)nn1C(CC(=O)O)C(=O)O` (stereo not drawn) [CBK263480], for which the viability at 28.5 h, 10 µM is 91.6%. Same read-out and setting: next, `N=c1n(CCN2CCCCC2)c2ccccc2n1CC(=O)c1cccc([N+](=O)[O-])c1` [CBK263481B]: 103%.

Regarding `CC1=NN(c2ccc(S(N)(=O)=O)cc2)C(=O)/C1=C\c1ccc(-c2cccc(C(=O)O)c2)o1` [CBK263483], the viability at 28.5 h, 10 µM amounted to 98%.

`COc1ccccc1C(=O)N1CCN(Cc2cc(OC)c(O)c(OC)c2)CC1` [CBK263484]: the viability at 28.5 h, 10 µM was determined as 101%. As to `COc1cc(/C=N/NC(=O)CCNc2n[nH]c(=O)[nH]c2=O)cc(Br)c1O` [CBK263494], the viability at 28.5 h, 10 µM is 88.3%. On the same count and under the same terms, next, `O=C(O)C(Cc1ccccc1)N1C(=O)/C(=C/C=C/c2ccccc2)SC1=S` (stereo not drawn) [CBK263496]: 99.6%. On to `Cc1ccc(C2=NN(C(=N)SC3CC(=O)N(c4ccc(C(=O)O)cc4)C3=O)C(c3ccc(Br)cc3)C2)cc1` (stereo not drawn) [CBK263497], for which the viability at 28.5 h, 10 µM came to 112%. On the same count and under the same terms, next, `CCOC(=O)c1c(C)n(-c2ccc(C)cc2)c2ccc(O)c(CN(C)C)c12` [CBK263499C]: 78.5%. With `O=C(Nc1ccc(S(=O)(=O)Nc2nccc(/C=C/c3ccc(Cl)cc3)n2)cc1)c1ccc(Br)cc1` [CBK263500], the viability at 28.5 h, 10 µM was found to be 103%.

Turning to `COC(=O)c1c(NC(=S)Nc2ccccc2)sc(Cc2ccccc2)c1C` [CBK263501], the viability at 28.5 h, 10 µM came to 90.6%. As to `COc1ccc(-n2c(C)c([N+](=O)[O-])c3ccc(O)c(CNCCCO)c32)cc1` [CBK263504C], the viability at 28.5 h, 10 µM amounted to 88.4%.

In the case of `CN(C)CCNC(=O)NC(c1ccccc1)c1ccccc1` [CBK263505C], the viability at 28.5 h, 10 µM stood at 104%.

Consider `Cc1cc(Br)c(NCC(=O)N/N=C/c2ccc(O)cc2)c(Br)c1` [CBK263506], for which the viability at 28.5 h, 10 µM is 101%. As for `CC1(C)OC(=O)C(=CNC(CCC(=O)O)C(=O)O)C(=O)O1` (stereo not drawn) [CBK263510], the viability at 28.5 h, 10 µM was determined as 97.3%.

As to `O=C(NCCN1CCCC1=O)Nc1ccccc1` [CBK263517], the viability at 28.5 h, 10 µM came out at 116%.

For `O=C(CCNc1n[nH]c(=O)[nH]c1=O)N/N=C/c1ccc(C(F)(F)F)cc1` [CBK263518], the viability at 28.5 h, 10 µM amounted to 87.7%.

For the compound `O=C(CNC(=O)c1cccc(F)c1)N/N=C1/C(=O)N(Cc2ccc3c(c2)OCO3)c2ccccc21` [CBK263519], the viability at 28.5 h, 10 µM was determined as 102%. `O=C(NCCO)c1ccc(CSc2nc3sc4c(c3c(=O)[nH]2)CCCC4)cc1` [CBK263522]: the viability at 28.5 h, 10 µM was 96.6%. The same measure, in the same setting: with `O=C(O)C(Cc1ccccc1)N1C(=O)/C(=C/C(Cl)=C/c2ccc([N+](=O)[O-])cc2)SC1=S` (stereo not drawn) [CBK263523] the figure was 95.4%; with `CC(/C=C1\SC(=S)N(C(Cc2ccccc2)C(=O)O)C1=O)=C\c1ccccc1` (stereo not drawn) [CBK263524], 91.7%; with `O=C(Cc1n[nH]c(=O)[nH]c1=O)N/N=C/c1ccc(C(=O)O)cc1` [CBK263525], 99.5%. On the same count and under the same terms, with `O=C1C2CCCCC2C(=O)N1c1ccc(Oc2ccc(Br)cc2)cc1` (stereo not drawn) [CBK263531] the figure was 116%; with `COc1ccc(N2C(=O)c3ccc(C(=O)OCC(=O)c4ccc(-c5ccccc5)cc4)cc3C2=O)cc1` [CBK263532], 95.8%. In the case of `CCCc1c(C)nc2ccc(C)cc2c1SCC(=O)O` [CBK263537], the viability at 28.5 h, 10 µM was found to be 88.6%.

As for `O=C(NCCNc1ccc([N+](=O)[O-])cc1Cl)c1ccccc1Cl` [CBK263541], the viability at 28.5 h, 10 µM came out at 112%. `O=C(NCCCn1ccnc1)c1cc2c(ccc3ccccc32)oc1=O` [CBK263543]: the viability at 28.5 h, 10 µM was determined as 86%. Consider `CCOc1ccc(N2C(=O)NC(=O)/C(=C/c3cn(CC(=O)Nc4ccccc4)c4ccccc34)C2=O)cc1` [CBK263544], for which, under “bulk resorufin, single well”, the viability at 28.5 h, 10 µM was 90.2%.

`COc1ccc(C(CC(=O)O)CC(=O)O)cc1OC` [CBK263545]: the viability at 28.5 h, 10 µM was 91.9%. Take `COc1ccc(N2C(=O)NC(=O)/C(=C/c3cn(CC(=O)Nc4ccccc4)c4ccccc34)C2=O)cc1` [CBK263547]: the viability at 28.5 h, 10 µM (bulk resorufin, single well) is 110%. For `O=C(O)Cn1c(=O)n(CC(=O)O)c2ccccc21` [CBK263550], the viability at 28.5 h, 10 µM is 83%. Same read-out and setting: next, `O=[N+]([O-])c1ccccc1NCCNS(=O)(=O)c1ccccc1` [CBK263552]: 89%.

`CCc1c(C)nc2c(C)cccc2c1SCC(=O)O` [CBK263554]: the viability at 28.5 h, 10 µM was 87.6%. On the same count and under the same terms, next, `Cc1oc(C(=O)O)cc1CSC(C)C(=O)O` (stereo not drawn) [CBK263556]: 93.8%. The same measure, in the same setting: with `O=C(NCC1CCCO1)C(=O)Nc1ccccc1F` (stereo not drawn) [CBK263557] the figure was 90.5%; with `O=C(CSc1nnc(-c2ccc3c(c2)OCO3)n1-c1ccccc1)c1ccc(Cl)cc1` [CBK263559], 100%.

For the compound `O=C(O)c1ccc(/C=N/N2CCN(Cc3ccc(Cl)cc3)CC2)cc1` [CBK263561], the viability at 28.5 h, 10 µM was determined as 90.5%. For the compound `CC(=O)Nc1ccc(S(=O)(=O)NCCSc2ccc(C)cc2)cc1` [CBK263563], the viability at 28.5 h, 10 µM came out at 111%. On to `COc1ccc(/C=C/C(=O)O)cc1S(=O)(=O)N1CCCCCC1` [CBK263565], for which the viability at 28.5 h, 10 µM was determined as 87.8%. Same read-out and setting: with `O=C(O)CCCC(=O)Nc1ccc(O)cc1` [CBK263567] the figure was 90.9%; with `O=C(O)c1ccc(/C=N/NC(=O)c2ccco2)cc1` [CBK263569], 90.5%; with `Cc1cccc(N(CC(=O)NCc2ccco2)S(=O)(=O)c2ccccc2)c1` [CBK263571], 87.7%. With `C/C(=N\N1CCN(Cc2cccc3ccccc23)CC1)c1ccncc1` [CBK263574], the viability at 28.5 h, 10 µM came to 98.9%.

Take `O=C(NC(=S)N1CCN(CCN2C(=O)c3cccc4cccc(c34)C2=O)CC1)c1ccc2c(c1)OCO2` [CBK263577]: the viability at 28.5 h, 10 µM was 82.2%. On to `CCc1cc(C)cc(OCCOc2ccccc2C=C2C(=O)NC(=S)NC2=O)c1` [CBK263579], for which the viability at 28.5 h, 10 µM (bulk resorufin, single well) is 120%.
